Experimental data: the NIST ThermoML archive (doi:10.1021/je2011055)
± gives the expanded uncertainty stated by the source.

Conditions: Liquid, Closed cell (Static) method

Structure (SMILES): CC(C)C [2-methylpropane]
- vapor or sublimation pressure (258.15 K): 88.9 ± 1 kPa
- vapor or sublimation pressure (268.15 K): 130.8 ± 1.1 kPa
- vapor or sublimation pressure (278.15 K): 186.7 ± 1.1 kPa
- vapor or sublimation pressure (288.15 K): 258.7 ± 1.3 kPa

Structure (SMILES): F/C=C/C(F)(F)F [trans-1,3,3,3-tetrafluoropropene]
- vapor or sublimation pressure (258.15 K): 119.3 ± 1.1 kPa
- vapor or sublimation pressure (268.15 K): 178.4 ± 1.1 kPa
- vapor or sublimation pressure (278.15 K): 258.1 ± 1.3 kPa
- vapor or sublimation pressure (288.15 K): 362.8 ± 1.5 kPa
